From US10889748B2, “Process for preparing dibenzylamine quaternary ammonium salt high-temperature resistant corrosion inhibitor and applications thereof” (Southwest Petroleum University, priority 2018, dated 2021)

Tests used:
[1] = Determination of water solubility of corrosion inhibitors in 20% hydrochloric acid solution; type: physicochemical; settings: 0.1 g corrosion inhibitor in 200 mL of 20% hydrochloric acid solution
Procedure: (§1) The process is as follows: weigh […] of the corrosion inhibitor of the present invention, and dissolve in 200 mL of 20% hydrochloric acid solution, respectively, stir and observe its dissolution. Prepare 20% hydrochloric acid solution system adding with iron ion stabilizer citric acid, clay stabilizer potassium chloride and discharge aiding agent OP-10 or fluorocarbon surfactant, respectively, and then weigh 0.1 g of the corrosion inhibitor of the present invention and add them to the 20% hydrochloric acid solution system, to observe the compatibility.

[2] = Compatibility with 20% hydrochloric acid system containing iron ion stabilizer, clay stabilizer and discharge aiding agent; type: physicochemical; settings: 0.1 g in 20% hydrochloric acid system with citric acid, potassium chloride and OP-10 or fluorocarbon surfactant; 90° C.
Procedure: as §1, with “The water solubility of the corrosion inhibitor prepared by Embodiments 1 to 4 and its compatibility with the system containing the iron ion stabilizer, clay stabilizer and discharge aiding agent under 90° C. are determined. The” for “The”

[3] = 4 h corrosion test at 90° C. in 20% hydrochloric acid; settings: P110 carbon steel, 1000 ppm inhibitor
Procedure: The corrosion inhibition performance of corrosion inhibitors in the embodiments 1 to 4 is determined by a 4 h corrosion test at 90° C. using 20% hydrochloric acid as a corrosive medium and P110 carbon steels. The amount of corrosion inhibitors is 1000 ppm.

Row | Compatibility [2] | SMILES | Water solubility and appearance [1] | Corrosion rate [3] [gm^−2h^−1] | Inhibition rate [3] [%]
1 | Uniform and transparent, | OC(C[N+]1(Cc2ccc3ccccc3c2)CCOCC1)C[N+](Cc1ccccc1)(Cc1ccccc1)Cc1ccc2ccccc2c1 (stereo not drawn) [Embodiment 1] | Soluble colorless | 34.87 | 95.18
2 | Uniform and transparent, | OC(C[N+](Cc1ccccc1)(Cc1ccccc1)Cc1ccccc1)C[N+]1(Cc2ccccc2)C=Cc2ccccc21 (stereo not drawn) [Embodiment 2] | Soluble colorless | 45.79 | 93.68
3 | Uniform and transparent, | CCCCCC[N+](Cc1ccccc1)(Cc1ccccc1)CC(O)C[N+](CCCCCC)(Cc1ccccc1)CC(O)C[N+](CCCCCC)(Cc1ccccc1)Cc1ccccc1 (stereo not drawn) [Embodiment 3] | Soluble colorless | 29.86 | 95.88
